# Literature values, collected in patent publication US20100111901A1, “TRIAZOLE INHIBITORS OF AROMATASE” (priority 2008, published 2010).
# Key:
# [1] = in vivo
# CYP1A2 = CYP1A2 (Homo sapiens, UniProt P05177); details: strongest in decreasing order of magnitude
# CYP2A6 = CYP2A6 (Homo sapiens, UniProt P11509)
# CYP2D6 = CYP2D6 (Homo sapiens, UniProt P10635)
# Chain of CYP2D6 (P10635 whole entry): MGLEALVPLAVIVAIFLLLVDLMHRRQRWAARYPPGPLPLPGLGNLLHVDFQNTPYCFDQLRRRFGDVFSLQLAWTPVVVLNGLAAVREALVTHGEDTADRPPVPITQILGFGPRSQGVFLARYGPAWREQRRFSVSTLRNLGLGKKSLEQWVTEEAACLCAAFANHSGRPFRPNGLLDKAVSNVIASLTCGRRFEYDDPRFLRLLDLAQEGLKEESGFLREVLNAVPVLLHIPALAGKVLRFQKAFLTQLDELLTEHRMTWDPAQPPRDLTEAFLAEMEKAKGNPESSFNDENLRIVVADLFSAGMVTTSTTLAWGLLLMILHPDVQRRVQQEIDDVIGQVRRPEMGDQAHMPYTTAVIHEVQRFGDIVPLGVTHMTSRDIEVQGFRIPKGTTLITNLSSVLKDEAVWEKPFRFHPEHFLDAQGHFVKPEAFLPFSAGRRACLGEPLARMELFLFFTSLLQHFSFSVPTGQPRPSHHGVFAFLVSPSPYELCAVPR
# Chain of CYP2A6 (P11509 whole entry): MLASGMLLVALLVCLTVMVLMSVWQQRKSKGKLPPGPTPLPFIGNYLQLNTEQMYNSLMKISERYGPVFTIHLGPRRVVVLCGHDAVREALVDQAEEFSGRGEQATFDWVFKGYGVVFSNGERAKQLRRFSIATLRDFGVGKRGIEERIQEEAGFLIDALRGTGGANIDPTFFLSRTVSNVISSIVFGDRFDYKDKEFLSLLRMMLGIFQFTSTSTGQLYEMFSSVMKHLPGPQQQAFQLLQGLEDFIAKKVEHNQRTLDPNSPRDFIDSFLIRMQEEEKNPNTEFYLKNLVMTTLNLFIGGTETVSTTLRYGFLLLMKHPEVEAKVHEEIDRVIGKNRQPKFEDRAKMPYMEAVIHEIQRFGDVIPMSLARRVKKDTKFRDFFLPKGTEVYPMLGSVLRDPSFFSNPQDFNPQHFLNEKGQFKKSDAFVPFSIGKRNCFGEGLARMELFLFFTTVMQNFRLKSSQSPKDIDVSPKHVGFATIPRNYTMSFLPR
# Chain of CYP1A2 (P05177 whole entry): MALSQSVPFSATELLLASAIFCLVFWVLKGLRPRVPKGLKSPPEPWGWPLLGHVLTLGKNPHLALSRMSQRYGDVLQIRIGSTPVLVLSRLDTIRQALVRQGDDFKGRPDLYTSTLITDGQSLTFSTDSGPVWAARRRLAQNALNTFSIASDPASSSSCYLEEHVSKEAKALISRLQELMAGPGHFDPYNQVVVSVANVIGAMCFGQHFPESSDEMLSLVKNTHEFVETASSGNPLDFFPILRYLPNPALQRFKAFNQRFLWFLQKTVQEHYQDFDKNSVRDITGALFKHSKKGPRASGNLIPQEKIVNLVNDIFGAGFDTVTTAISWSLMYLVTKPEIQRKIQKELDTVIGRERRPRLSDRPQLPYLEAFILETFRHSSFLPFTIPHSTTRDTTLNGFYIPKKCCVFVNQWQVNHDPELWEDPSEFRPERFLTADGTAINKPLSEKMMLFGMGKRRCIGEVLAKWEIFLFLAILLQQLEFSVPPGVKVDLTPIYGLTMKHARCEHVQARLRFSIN
smiles,measurement,setting,value
"CC(C)(C#N)c1cc(Cn2cncn2)cc(C(C)(C)C#N)c1 [Anastrozole, 2-[3-(2-cyano-2-propyl)-5-(1,2,4-triazol-1-ylmethyl)phenyl]-2-methylpropiononitrile]",mean terminal elimination half-life,[1],40 to 50 h
same,inhibition of CYP1A2,CYP1A2,inhibits
same,effect on CYP2A6,CYP2A6,no effect
same,effect on CYP2D6,CYP2D6,no effect
